Like-named read-outs stand apart in the source and are kept apart here.
Key:
[1] = system: CD34+ cells isolated from the bone marrow of two healthy donors; experiment: Megakaryocyte differentiation and proliferation, alone and with ruxolitinib, 10 days (FACS); assay type: cell-based; conditions: 240 h, 10 days
Description: The cells were then harvested for FACS analysis with live/dead stain and gating with CD34 (progenitor marker) and CD41a and CD42b (mature megakaryocyte markers).

[2] = system: patients with myelofibrosis; experiment: Initial human clinical data set, four patients (combination and monotherapy arms); assay type: in vivo
Description: Two myelofibrosis patients to enroll (Patients 245 and 246) received Compound 1 in combination with ruxolitinib and received 18 treatment cycles (11 months of treatment). The other two patients to enroll (Patients 247 and 248) received 10 cycles of Compound 1 as monotherapy (6 months of treatment). […] One of the patients who was transfusion dependent at study entry became transfusion independent (defined as >12 weeks without the need for a red blood cell (RBC) transfusion. Indeed, 7 months had elapsed since their last transfusion.
All four patients experienced an increase in their hemoglobin levels with multiple treatment cycles with Compound 1. In addition, one of the patients who entered the study with uncontrolled thrombocytosis (baseline platelets were 895×10^9/L) experienced a normalization of their platelet counts within the first month of monotherapy treatment with Compound 1. The patient's platelet counts remained normal for more than 20 weeks. This patient's thrombocytosis was also accompanied by severe headaches requiring multiple hospital admission. Following treatment with Compound 1, however, the patient's headaches were resolved. Brief narratives for all four patients treated for at least 6 months are presented below.
At entry into the study with Compound 1, their spleen volume by MRI was 1404 cc and was 12 cm by palpation. The patient presented with early satiety, night sweats, and dyspnea at the start of the study. […] The lowest spleen volume by MRI was 1144 cc, a 19% reduction, at the 6-month MM. The dose of ruxolitinib was reduced on Cycle 10 to 7.5 mg BID to address decreasing platelet count.
When Patient 246 initiated combination treatment with Compound 1 125 mg QD and ruxolitinib 10 mg BID their spleen volume was 607 cc by MRI and 2 cm by palpation and they required regular transfusions (2 units of RBC every 3-4 weeks).
The patient also presented with uncontrolled thrombocytosis at study entry (platelet count of 895×10^9/L at baseline) despite hydroxyurea. In addition, the patient had experienced persistent and debilitating headaches that required multiple hospital admissions for pain control. Their platelets were normalized after receiving their first two weeks of Compound 1 monotherapy (183 x10^9/L) and have remained within the normal range for the remainder of the time they have been on study (see FIG. 6). Within 2 months on Compound 1 monotherapy, the patient's severe headaches had resolved; their night sweats were less frequent; and a 37% reduction in symptoms was assessed by the Myeloproliferative Neoplasm Symptom (MNS) score. Their ECOG performance score decreased from 2 to 1 after two treatment cycles with CPI-0610 and a 25% decrease in spleen volume (640 cc) was assessed by MRI after 8 treatment cycles, the most recent measurement.
Their constitutional symptoms at study entry included fatigue, early satiety, and difficulty concentrating. […] The patient was reinitiated with a reduced Compound 1 dose of 175 mg at the beginning of Cycle 2, which has been tolerated for the remaining time on study (>6 months). While the patient's spleen has shown minimal change through palpation a spleen volume reduction of 11% (1023 cc) was measured by MRI after 3 months on treatment with Compound 1. Their MNS score improved 19% after 2 months on the 175 mg QD dose and after 6 months of Compound 1 treatment their bone marrow fibrosis grade decreased from MF-2 at baseline to MF-1 based on a local pathologist's assessment.

Cc1noc2c1-c1ccccc1C(c1ccc(Cl)cc1)=N[C@H]2CC(N)=O [Compound 1, 2-((4S)-6-(4-chlorophenyl)-1-methyl-4H-benzo[c]isoxazolo[4,5-e]azepin-4-yl)acetamide]
EC50 ([1]; Donor 1, percent of cells double positive for CD41a and CD42b, read-out: Megakaryocyte differentiation EC50): 60 nM | EC50 ([1]; Donor 1, read-out: Megakaryocyte live count EC50): 26 nM | EC50 ([1]; Donor 1, read-out: Total live count EC50): 43 nM | EC50 ([1]; Donor 1, read-out: Viability EC50): 300 nM | EC50 ([1]; Donor 2, percent of cells double positive for CD41a and CD42b, read-out: Megakaryocyte differentiation EC50): 131 nM | EC50 ([1]; Donor 2, read-out: Megakaryocyte live count EC50): 29 nM | EC50 ([1]; Donor 2, read-out: Total live count EC50): 32 nM | EC50 ([1]; Donor 2, read-out: Viability EC50): > 500 nM | EC50 ([1]; Mean of two donors, read-out: Megakaryocyte differentiation EC50): 96 nM | EC50 ([1]; Mean of two donors, read-out: Megakaryocyte live count EC50): 28 nM | EC50 ([1]; Mean of two donors, read-out: Total live count EC50 (overall cell proliferation)): 38 nM | EC50 ([1]; Mean of two donors, read-out: Viability EC50): 400 nM | EC50 ([1]; in the presence of 250 nM ruxolitinib, extrapolated, below the lowest dose tested, read-out: overall cell proliferation mean EC50 in the presence of ruxolitinib): 17 nM | spleen volume reduction ([2]; Patient 245, 6-month MRI, with ruxolitinib): 19% | lowest spleen volume by MRI ([2]; Patient 245, 6-month MRI, with ruxolitinib, 1404 cc at entry): 1144 cc | spleen size ([2]; Patient 245, after 4 weeks of therapy with Compound 1 and ruxolitinib, 12 cm before): 5 cm | spleen by palpation ([2]; Patient 245, within 4 months, Compound 1 125 mg QD and ruxolitinib 15 mg BID, 12 cm at entry): 5 cm | time to transfusion independence ([2]; Patient 246, Compound 1 125 mg QD titrated to 175 mg QD and ruxolitinib 10 mg BID, TI = >12 weeks without transfusion and hemoglobin >8 g/dL): ≤ 7 months | reduction in spleen volume ([2]; Patient 246, by Cycle 12, with ruxolitinib): 37% | spleen volume ([2]; Patient 246, by Cycle 12, with ruxolitinib, 607 cc at start): 380 cc | most recent hemoglobin measurement ([2]; Patient 246, with ruxolitinib): 10.9 g/dL | decrease in spleen volume by MRI ([2]; Patient 247, after 8 treatment cycles, monotherapy): 25% | spleen volume by MRI ([2]; Patient 247, after 8 treatment cycles, monotherapy, 858 cc at entry): 640 cc | platelets ([2]; Patient 247, after first two weeks of monotherapy, 895×10^9/L at baseline): 1.83e+11 L⁻¹ | ECOG performance score ([2]; Patient 247, after two treatment cycles, from 2, monotherapy): 1 | reduction in symptoms by Myeloproliferative Neoplasm Symptom (MNS) score ([2]; Patient 247, within 2 months, monotherapy): 37% | time reduced dose has been tolerated ([2]; Patient 248, 175 mg from Cycle 2): > 6 months | MNS score improvement ([2]; Patient 248, after 2 months on 175 mg QD): 19% | spleen volume reduction by MRI ([2]; Patient 248, after 3 months, monotherapy): 11% | spleen volume by MRI ([2]; Patient 248, after 3 months, monotherapy, 1148 cc at entry): 1023 cc | hemoglobin level after treatment ([2]; from about 8 g/dl, FIG. 5): about 10.9 g/dl | tolerability of starting dose ([2]; human, in vivo): did not tolerate | time elapsed since last transfusion ([2]; patient who was transfusion dependent at study entry): 7 months | time platelet counts remained normal ([2]; patient with uncontrolled thrombocytosis (Patient 247), monotherapy): more than 20 weeks | hemoglobin level after treatment ([2]; patients 247 and 248, from about 8 g/dL): about 11.5 g/dL
